Laboratory results published in PMC6983093, “Ketoprofen-Based Ionic Liquids: Synthesis and Interactions with Bovine Serum Albumin” (Molecules, 2019).
pIC50: −log10 of the molar value. Where “and” joins values, the source holds several entries; their conditions need not be identical. Identical values can stand only once.

Key:
[1] = target: T1, bovine serum albumin (BSA) (Bos taurus, UniProt P02769); assay: BSA fluorescence quenching (Stern–Volmer and double-log analysis); type: binding; conditions: 25 °C; for bimolecular quenching rate constant kq: pH 7.4, τo taken as 10^−8 s; for Binding constant KA / Stern–Volmer quenching constant Ksv: sodium phosphate buffer pH 7.4, 50 mM; for Stern–Volmer quenching constant Ksv: BSA 2 μM, λex 280 nm
T1 construct: Bovine serum albumin (BSA), heat shock fraction, protease-free, fatty acid-free, essentially globulin free (pH 7, ≥98%); purchased Merck (Darmstadt, Germany)
T1 sequence (P02769 25-607): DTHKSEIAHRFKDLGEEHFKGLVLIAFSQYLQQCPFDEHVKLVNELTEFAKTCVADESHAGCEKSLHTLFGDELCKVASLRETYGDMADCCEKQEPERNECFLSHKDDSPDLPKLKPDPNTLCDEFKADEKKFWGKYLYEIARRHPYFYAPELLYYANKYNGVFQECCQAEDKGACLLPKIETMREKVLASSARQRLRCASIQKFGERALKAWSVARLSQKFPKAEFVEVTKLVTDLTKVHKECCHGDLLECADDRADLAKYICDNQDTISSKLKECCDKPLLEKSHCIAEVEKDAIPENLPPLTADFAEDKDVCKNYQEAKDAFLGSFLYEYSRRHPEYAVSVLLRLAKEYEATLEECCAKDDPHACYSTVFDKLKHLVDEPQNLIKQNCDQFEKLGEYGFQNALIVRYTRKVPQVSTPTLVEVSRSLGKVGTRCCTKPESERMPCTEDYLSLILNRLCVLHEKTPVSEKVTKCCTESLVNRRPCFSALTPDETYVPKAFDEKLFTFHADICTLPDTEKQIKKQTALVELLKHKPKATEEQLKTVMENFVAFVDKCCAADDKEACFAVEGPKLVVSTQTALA
Experimental: The fluorescence quenching data are analyzed according to the Stern–Volmer Equation (1):(1) Fo/F=1+kqτqo[Q]=1+Ksv[Q], where Fo and F is the fluorescence peak intensities in the absence and in the presence of quencher.
The maximum scatter quenching constant Kq that is due to collisions between biomolecules is 2 × 10^10 L mol^−1 s^−1 [33].
The dependence of log(Fo−F/F) vs. log[Q] is linear with a slope equal to the number of the binding sites, and y-intercept corresponds to the log of the effective binding constant (KA).
All fluorescence measurements were carried out on Perkin Elmer LS 55 fluorimeter equipped with a 1.0 cm quartz cuvette.
(§1) BSA-ILs incubated 1 hour prior to the measurements.

[2] = target: T1, bovine serum albumin (BSA); assay: ATR-FTIR analysis of the Amide I band of BSA-compound complexes (secondary structure); conditions: for α-Helices, Relative Area of Amide I band component: BSA 0.3 mM : compound 1:1, phosphate buffer pH 7.4, 50 mM, native BSA 47.3; for Unordered Structures, Relative Area of Amide I band component: '-' = no band, native BSA 21
Experimental: In the spectra of proteins, the Amide I band region (1700–1600 cm^−1) is mainly due to the starching vibrations of the carbonyl group (80%) and is highly sensitive to the changes in the geometry and the environment of the amide bonds. […] The band assignments were done according to Jackson and Mantsch and the analysis of the structure was taken into consideration the data on the BSA available in the literature.
The spectra of the proteins were referenced to the respective spectra of 50 mM sodium phosphate buffer, pH 7.4 containing the same amount of the corresponding IL.
Then the ATR-FTIR spectra were Fourier deconvoluted by Opus software version 5.5 using a bandwidth of 12 cm^−1, 2.9 resolution enhancement factor, and Lorentzian lineshape. Second derivative spectra were obtained using the Savitzky-Golay algorithm based on 17 smoothing points. Then, the relative contribution of each band component of the Amide I band was determined by curve fitting following the procedure of the OPUS program. In the fitting, the number of components and the initial values of their position were set as determined from the second derivative spectra. The initial bandwidth of all components was set to 12 cm^−1 and the components were approximated by mixed Lorentzian/Gaussian functions. The curve-fitting was performed according to the Local Least Squares algorithm. The assignment of the Amide I band positions to the secondary structure was done according to [36].

[3] = target: T1, bovine serum albumin (BSA); assay: Steady-state FRET between BSA fluorophores and compound; type: binding; conditions: [BSA] = [Quencher] = 2 μM; T = 25 °C
Source text: The following equations are used to estimate the steady-state FRET parameters:(3) E=1−F/Fo=Ro^6/Ro^6+ro^6, (4) Ro^6=8.8x10^−25K^2n^−4ϕJ, (5) J=∑F(λ)ε(λ)λ^4Δλ/∑F(λ)Δλ, where E is energy transfer efficacy, Ro is the characteristic distance called Förster distance or critical distance at which the energy transfer efficacy is 50%, ro is the distance between the quencher (drug) and the BSA fluorophores. […] F(λ) is the fluorescence intensity of the fluorescence of the donor, ε(λ) (L mol^−1 cm^−1) is the molar absorption coefficient of the acceptor at wavelength λ.
as §1

[4] = target: cytochrome C oxidase; set-up: method as in doi:10.1016/j.molliq.2017.02.027; conditions: cited from earlier work; for pIC50: read-out: IC50 for the inhibition of cytochrome C oxidase
[5] = Thermogravimetric analysis (thermal stability, TG); conditions: heating 10 °C min^−1, air atmosphere
[6] = BSA:compound 1:1, pH 7.4, one value per band, in the order of the band positions of the column to the left

Row | β-Structures, Relative Area of Amide I band components [2, 6] | Compound | bimolecular quenching rate constant kq [1] | Binding constant KA [1] | Stern–Volmer quenching constant Ksv [1] | α-Helices, Relative Area of Amide I band component [2] | Effect on the secondary structure of BSA (in words) ([2]; BSA:compound 1:1, pH 7.4) | Unordered Structures, Relative Area of Amide I band component ([2]; BSA:compound 1:1, pH 7.4) | EFRET (energy transfer efficacy) [3] | Ro (Förster critical distance) [3] | ro (distance between quencher and BSA fluorophores) [3] | pIC50 [4] | Tonset (onset of the thermal degradation) [5] | Toxicity relative to the parent sodium salt [4] | Aromatic Residues/Aggregated Strands/Antiparallel β-Sheets, Relative Area of Amide I band components [2, 6]
1 | – | L-Valine Isopropyl Ester Ketoprofenate [[L-ValOiPr][KETO]] | 7.1 10^12, L mol^−1 s^−1 | 1.5 10^5, L mol^−1 | 7.1 10^4, L mol^−1 | 23.8% | most dramatic changes in the secondary structure | 11.7% | 0.0625 | 3.38 nm | 5.42 nm | – | – | – | –
2 | – | CC(C(=O)O)c1cccc(C(=O)c2ccccc2)c1 (stereo not shown) [cholinium ketoprofenate] | – | – | – | – | – | – | – | – | – | ~1.67 | – | – | –
3 | – | CC(C(=O)O)c1cccc(C(=O)c2ccccc2)c1 (stereo not shown) [sodium ketoprofenate] | – | – | – | – | – | – | – | – | – | ~6.22 | – | – | –
4 | – | L-Valine Butyl Ester Ketoprofenate [[L-ValOBu][KETO]] | 7.3 10^12, L mol^−1 s^−1 | 7.5 10^5, L mol^−1 | 7.3 10^4, L mol^−1 | 27.8% | – | – | 0.0520 | 3.32 nm | 5.48 nm | – | 101.1 °C | – | –
5 | 13.5% and 13.7% | L-Leucine Ethyl Ester Ketoprofenate [[L-LeuOEt][KETO]] | 8.3 10^12, L mol^−1 s^−1 | 7.1 10^5, L mol^−1 | 8.3 10^4, L mol^−1 | 36.7% | very close to the native BSA conformation | 21.5% | 0.0246 | 3.30 nm | 6.14 nm | – | – | – | –
6 | – | L-Valine Ethyl Ester Ketoprofenate [[L-ValOEt][KETO]] | 6.3 10^12, L mol^−1 s^−1 | 8.2 10^5, L mol^−1 | 6.3 10^4, L mol^−1 | 28.8% | – | 17.25% | 0.1830 | 3.43 nm | 4.68 nm | – | 100.4 °C | – | –
7 | – | COc1ccc2cc(C(C)C(=O)[O-])ccc2c1.C[N+](C)(C)CCO (stereo not shown) [cholinium naproxenate] | – | – | – | – | – | – | – | – | – | – | – | more toxic than its parent sodium salt | –
8 | – | L-Valine Propyl Ester Ketoprofenate [[L-ValOPr][KETO]] | 7.1 10^12, L mol^−1 s^−1 | 2.3 10^5, L mol^−1 | 7.1 10^4, L mol^−1 | 26.9% | – | 29.2% | 0.1770 | 3.46 nm | 4.74 nm | – | 52.3 °C | – | 11.0%
